Data taken from patent US12565488B2, “Inhibitors of influenza virus replication” (COCRYSTAL PHARMA, INC., priority 2018, dated 2026).
pEC50: −log10 of the molar value.

tested on: Influenza type A (strain A/PR/8/34, ATCC VR-95); assay: Influenza antiviral assay: inhibition of virus-induced cytopathic effects (CPE) in MDCK cells, XTT dye reduction; assay type: cell-based; settings: Influenza A (H1N1) replication in MDCK cells, CPE reduction by XTT at 4 days post-infection; read-out: Influenza H1N1 affinity, EC50

SMILES	pEC50
O=C(NCC1c2ccccc2COc2ccccc21)c1c(O)c(=O)ccn1CC1c2ccccc2COc2ccccc21 (stereo not drawn) [Compound 102]	< 4.00
O=C(NCC1c2ccccc2COc2ccccc21)c1c(O)c(=O)ccn1CC1c2ccccc2COc2ccccc21 (stereo not drawn) [Compound 106]	< 4.00
O=C(NCC1c2ccccc2COc2ccccc21)c1c(O)c(=O)ccn1CC1c2ccccc2COc2ccccc21 (stereo not drawn) [Compound 107]	< 4.00
O=C(NCC1c2ccccc2COc2ccccc21)c1c(O)c(=O)ccn1CC1c2ccccc2COc2ccccc21 (stereo not drawn) [Compound 108]	5.00 to 6.00

same assay, conditions: Influenza A virus, H1N1 / PR/8, MDCK, 96 h, Influenza A (H1N1) replication in MDCK cells, CPE reduction by XTT at 4 days post-infection; read-out: Influenza H1N1 affinity, EC50

SMILES	pEC50
O=C(O)c1c(O)c(=O)ccn1NC1c2cc(Cl)ccc2COc2ccc(Cl)cc21 (stereo not drawn) [Compound 58, 1-((2,9-dichloro-6,11-dihydrodibenzo[b,e]oxepin-11-yl)amino)-3-hydroxy-4-oxo-1,4-dihydropyridine-2-carboxylic acid]	4.00 to 5.00
O=C(O)c1c(O)c(=O)ccn1NC1c2ccccc2CSc2ccccc21 (stereo not drawn) [Compound 59]	4.00 to 5.00
O=C(O)c1c(O)c(=O)ccn1NC1c2ccccc2COc2cc(Cl)c(Cl)cc21 (stereo not drawn) [Compound 60]	4.00 to 5.00
CNC(=O)c1c(O)c(=O)ccn1NC(c1ccccc1)c1ccccc1 [Compound 61]	< 4.00
O=C(O)c1c(O)c(=O)ccn1NC1c2ccccc2OCc2c(F)cccc21 (stereo not drawn) [Compound 66]	4.00 to 5.00
O=C(O)c1c(O)c(=O)ccn1NC(c1ccccc1)c1ccccc1 [Compound 67]	< 4.00
O=C(O)c1c(O)c(=O)ccn1NC(c1cccc2ccccc12)c1cccc2ccccc12 [Compound 68]	< 4.00
CNC(=O)c1c(O)c(=O)ccn1NC(c1cccc2ccccc12)c1cccc2ccccc12 [Compound 69]	< 4.00
CNC(=O)c1c(O)c(=O)ccn1N(Cc1ccccc1)C1c2ccccc2COc2ccccc21 (stereo not drawn) [Compound 72]	< 4.00
O=C(O)c1cn(CC2c3ccccc3COc3ccccc32)c(C(=O)O)c(O)c1=O (stereo not drawn) [Compound 73]	< 4.00
CNC(=O)c1c(O)c(=O)ccn1NC1c2ccccc2OCc2c(F)cccc21 (stereo not drawn) [Compound 74]	< 4.00
O=C(O)c1c(O)c(=O)ccn1NC1c2ccccc2OCc2c1ccc(F)c2F (stereo not drawn) [Compound 75]	4.00 to 5.00
CNC(=O)c1c(O)c(=O)ccn1NC1c2ccccc2COc2cc(Cl)c(Cl)cc21 (stereo not drawn) [Compound 76, 1-((2,3-dichloro-6,11-dihydrodibenzo[b,e]oxepin-11-yl)amino)-3-hydroxy-N-methyl-4-oxo-1,4-dihydropyridine-2-carboxamide]	< 4.00
O=C(O)c1c(O)c(=O)ccn1NC1c2ccccc2CSc2cc(Cl)c(Cl)cc21 (stereo not drawn) [Compound 77]	4.00 to 5.00
CNC(=O)c1c(O)c(=O)ccn1NC1c2ccccc2CSc2cc(F)c(F)cc21 (stereo not drawn) [Compound 78]	5.00 to 6.00
CNC(=O)c1c(O)c(=O)ccn1NC1c2ccccc2CSc2cc(Cl)c(Cl)cc21 (stereo not drawn) [Compound 79, 1-((2,3-dichloro-6,11-dihydrodibenzo[b,e]thiepin-11-yl)amino)-3-hydroxy-N-methyl-4-oxo-1,4-dihydropyridine-2-carboxamide]	< 4.00
O=C(O)c1c(O)c(=O)ccn1NC1c2ccc(F)c(F)c2COc2c1ccc(F)c2F (stereo not drawn) [Compound 80]	5.00 to 6.00
O=C(O)c1c(O)c(=O)ccn1NC(c1ccccc1)c1ccc2ccccc2c1 (stereo not drawn) [Compound 82]	4.00 to 5.00
O=C(O)c1c(O)c(=O)ccn1NC1c2ccc(C(F)(F)F)cc2COc2ccccc21 (stereo not drawn) [Compound 86]	< 4.00
O=C(O)c1c(O)c(=O)ccn1NC1c2ccccc2CSc2c1ccc(Cl)c2Cl (stereo not drawn) [Compound 87]	5.00 to 6.00
O=C(O)c1c(O)c(=O)ccn1NC1c2ccccc2CSc2cc(F)c(F)cc21 (stereo not drawn) [Compound 88]	4.00 to 5.00
O=C(O)c1c(O)c(=O)ccn1NC1c2ccc(F)c(F)c2CSc2c1ccc(F)c2F (stereo not drawn) [Compound 93]	5.00 to 6.00
O=C(O)c1c(O)c(=O)ccn1NC1c2ccccc2SCc2c1ccc(Cl)c2Cl (stereo not drawn) [Compound 94]	6.00 to 7.00
O=C(O)c1c(O)c(=O)ccn1NC1c2cc(F)c(F)cc2CSc2ccccc21 (stereo not drawn) [Compound 95]	5.00 to 6.00
O=C(O)c1c(O)c(=O)ccn1NC1c2ccccc2SCc2c1ccc(F)c2Br (stereo not drawn) [Compound 96]	6.00 to 7.00

SMILES	pEC50
O=C(O)c1c(O)c(=O)ccn1NC1c2ccccc2SCc2c1ccc(Br)c2Cl (stereo not drawn) [Compound 97]	5.00 to 6.00
O=C(O)c1c(O)c(=O)ccn1NC1c2ccccc2OCc2c1ccc(Cl)c2Cl (stereo not drawn) [Compound 99]	5.00 to 6.00
O=C(O)c1c(O)c(=O)ccn1NC(c1ccc2ccccc2c1)c1ccc2ccccc2c1 [Compound 100]	< 4.00
CNC(=O)c1cn(NC2c3ccccc3COc3ccccc32)c(C(=O)NC)c(O)c1=O (stereo not drawn) [Compound 103]	< 4.00
CCOC(=O)c1cn(NC2c3ccccc3COc3ccccc32)c(C(=O)OCC)c(O)c1=O (stereo not drawn) [Compound 104]	< 4.00
O=C(O)c1c(O)c(=O)ccn1NC(c1ccc(F)c(F)c1)c1ccc(F)c(F)c1 [Compound 105]	< 4.00
O=C(O)c1cn(NC2c3ccccc3COc3ccccc32)c(C(=O)O)c(O)c1=O (stereo not drawn) [Compound 109]	4.00 to 5.00
O=C(O)c1c(O)c(=O)ccn1NC1c2ccc(C(F)(F)F)cc2COc2cc(C(F)(F)F)ccc21 (stereo not drawn) [Compound 110]	< 4.00
O=C(O)c1c(O)c(=O)ccn1NC(c1ccccc1)c1cccc2ccccc12 (stereo not drawn) [Compound 112]	4.00 to 5.00
CC(C)c1ccc2c(c1)C(Nn1ccc(=O)c(O)c1C(=O)O)c1ccc(F)c(F)c1CS2 (stereo not drawn) [Compound 113]	< 4.00
O=C(O)c1c(O)c(=O)ccn1NC1c2ccc(-c3ccccc3)cc2SCc2c1ccc(F)c2F (stereo not drawn) [Compound 114]	4.00 to 5.00
COc1ccc2c(c1)C(Nn1ccc(=O)c(O)c1C(=O)O)c1ccccc1CS2 (stereo not drawn) [Compound 115]	< 4.00
O=C(O)c1c(O)c(=O)ccn1NC1c2cc(OC(F)(F)F)ccc2SCc2c1ccc(F)c2F (stereo not drawn) [Compound 116]	4.00 to 5.00
O=C(O)c1c(O)c(=O)ccn1NC1c2cc(Cl)c(Cl)cc2CSc2ccccc21 (stereo not drawn) [Compound 117]	4.00 to 5.00
O=C(O)c1c(O)c(=O)ccn1CC1c2ccccc2SCc2c1ccc(F)c2F (stereo not drawn) [Compound 118]	< 4.00
O=C(O)c1cn(NC2c3ccccc3SCc3c2ccc(F)c3F)cc(O)c1=O (stereo not drawn) [Compound 120]	5.00 to 6.00
O=C(O)c1c(O)c(=O)ccn1NC1c2ccc(F)c(F)c2CSc2c(-c3ccccc3)cccc21 (stereo not drawn) [Compound 121]	< 4.00
O=C(O)c1c(O)c(=O)ccn1NC1c2ccc(F)c(F)c2CSc2c(-c3ccc(F)cc3)cccc21 (stereo not drawn) [Compound 122]	< 4.00
O=C(O)c1c(O)c(=O)ccn1NC1c2ccc(-c3ccc(F)cc3)cc2SCc2c1ccc(F)c2F (stereo not drawn) [Compound 123]	4.00 to 5.00
O=C(O)c1c(O)c(=O)ccn1NC1c2ccccc2S(=O)(=O)Cc2c1ccc(F)c2F (stereo not drawn) [Compound 126]	4.00 to 5.00
NC(=O)c1c(O)c(=O)ccn1NC1c2ccccc2SCc2c1ccc(F)c2F (stereo not drawn) [Compound 127]	5.00 to 6.00
O=C(O)c1c(O)c(=O)ccn1NC1c2ccccc2SCc2c1cccc2N1CCCC1=O (stereo not drawn) [Compound 128]	5.00 to 6.00
O=C(NO)c1c(O)c(=O)ccn1NC1c2ccccc2SCc2c1ccc(F)c2F (stereo not drawn) [Compound 129]	5.00 to 6.00
O=C(NOCc1ccccc1)c1c(O)c(=O)ccn1NC1c2ccccc2SCc2c1ccc(F)c2F (stereo not drawn) [Compound 130, N-(benzyloxy)-1-((7,8-difluoro-6,11-dihydrodibenzo[b,e]thiepin-11-yl)amino)-3-hydroxy-4-oxo-1,4-dihydropyridine-2-carboxamide]	5.00 to 6.00

same assay, conditions: Influenza A virus, H1N1 / PR/8, MDCK, 96 h, read-out: Influenza H1N1 affinity, EC50

SMILES	pEC50
CNC(=O)c1cn(CC2c3ccccc3COc3ccccc32)c(C(=O)NC)c(O)c1=O (stereo not drawn) [Compound 65, 1-((6,11-dihydrodibenzo[b,e]oxepin-11-yl)methyl)-3-hydroxy-N2,N5-dimethyl-4-oxo-1,4-dihydropyridine-2,5-dicarboxamide]	< 4.00
